# Experimental data published in ChEMBL document CHEMBL5678810.
# What was measured:
# [1] = target: T1, Serine/threonine-protein kinase ULK3 (Homo sapiens) (UniProt Q6PHR2); test: Inhibition of T7 bacteriophage fused human ULK3 at 10 uM by KINOMEscan analysis relative to control
# T1 sequence (whole entry): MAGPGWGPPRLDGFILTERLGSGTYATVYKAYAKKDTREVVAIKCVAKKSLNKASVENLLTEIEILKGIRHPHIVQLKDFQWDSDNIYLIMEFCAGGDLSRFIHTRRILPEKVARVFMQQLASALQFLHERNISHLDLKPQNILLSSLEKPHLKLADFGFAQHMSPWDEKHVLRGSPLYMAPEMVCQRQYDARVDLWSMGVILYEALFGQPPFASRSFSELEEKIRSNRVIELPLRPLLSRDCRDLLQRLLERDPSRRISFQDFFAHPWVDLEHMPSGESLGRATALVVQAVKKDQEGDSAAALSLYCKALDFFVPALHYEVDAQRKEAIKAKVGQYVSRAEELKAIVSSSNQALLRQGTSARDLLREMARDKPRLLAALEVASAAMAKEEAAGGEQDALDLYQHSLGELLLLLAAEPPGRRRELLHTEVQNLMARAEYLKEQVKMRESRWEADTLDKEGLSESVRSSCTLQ
# [2] = target: Activated CDC42 kinase 1 (Homo sapiens) (UniProt Q07912); test: Inhibition of T7 bacteriophage fused human TNK2 at 10 uM by KINOMEscan analysis relative to control
# [3] = target: Dual specificity testis-specific protein kinase 1 (Homo sapiens) (UniProt Q15569); test: Inhibition of T7 bacteriophage fused human TESK1 at 10 uM by KINOMEscan analysis relative to control
# [4] = target: Mitogen-activated protein kinase kinase kinase 20 (Homo sapiens) (UniProt Q9NYL2); test: Inhibition of T7 bacteriophage fused human ZAK at 10 uM by KINOMEscan analysis relative to control
# [5] = target: Tyrosine-protein kinase SYK (Homo sapiens) (UniProt P43405); test: Inhibition of T7 bacteriophage fused human SYK at 10 uM by KINOMEscan analysis relative to control
# [6] = target: T2, Tyrosine-protein kinase receptor TYRO3 (Homo sapiens) (UniProt Q06418); test: Inhibition of T7 bacteriophage fused human TYRO3 at 10 uM by KINOMEscan analysis relative to control
# T2 sequence (whole entry): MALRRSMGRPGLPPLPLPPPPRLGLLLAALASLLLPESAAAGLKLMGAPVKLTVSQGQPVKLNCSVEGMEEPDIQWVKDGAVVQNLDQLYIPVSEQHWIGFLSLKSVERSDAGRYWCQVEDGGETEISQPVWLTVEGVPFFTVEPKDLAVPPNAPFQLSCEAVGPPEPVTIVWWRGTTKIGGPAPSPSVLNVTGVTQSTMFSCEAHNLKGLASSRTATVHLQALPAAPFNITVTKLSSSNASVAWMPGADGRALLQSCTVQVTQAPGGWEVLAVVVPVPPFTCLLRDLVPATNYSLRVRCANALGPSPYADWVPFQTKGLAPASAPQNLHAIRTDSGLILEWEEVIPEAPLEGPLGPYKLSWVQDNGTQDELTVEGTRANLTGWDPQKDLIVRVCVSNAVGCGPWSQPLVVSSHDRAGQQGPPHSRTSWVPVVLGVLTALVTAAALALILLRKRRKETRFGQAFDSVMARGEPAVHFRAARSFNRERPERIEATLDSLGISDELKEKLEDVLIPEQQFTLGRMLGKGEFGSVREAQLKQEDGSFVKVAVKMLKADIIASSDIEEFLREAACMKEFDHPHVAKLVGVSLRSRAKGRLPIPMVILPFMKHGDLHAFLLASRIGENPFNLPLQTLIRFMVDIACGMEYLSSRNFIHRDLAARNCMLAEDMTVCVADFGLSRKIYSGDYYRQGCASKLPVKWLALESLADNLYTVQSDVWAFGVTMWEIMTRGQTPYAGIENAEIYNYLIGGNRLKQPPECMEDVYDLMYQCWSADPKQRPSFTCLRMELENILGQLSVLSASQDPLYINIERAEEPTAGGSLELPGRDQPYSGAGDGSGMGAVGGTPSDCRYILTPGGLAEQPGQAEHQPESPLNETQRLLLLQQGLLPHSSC
# Chain of Activated CDC42 kinase 1 (Homo sapiens) (Q07912 whole entry, looked up, the tested form may be a part): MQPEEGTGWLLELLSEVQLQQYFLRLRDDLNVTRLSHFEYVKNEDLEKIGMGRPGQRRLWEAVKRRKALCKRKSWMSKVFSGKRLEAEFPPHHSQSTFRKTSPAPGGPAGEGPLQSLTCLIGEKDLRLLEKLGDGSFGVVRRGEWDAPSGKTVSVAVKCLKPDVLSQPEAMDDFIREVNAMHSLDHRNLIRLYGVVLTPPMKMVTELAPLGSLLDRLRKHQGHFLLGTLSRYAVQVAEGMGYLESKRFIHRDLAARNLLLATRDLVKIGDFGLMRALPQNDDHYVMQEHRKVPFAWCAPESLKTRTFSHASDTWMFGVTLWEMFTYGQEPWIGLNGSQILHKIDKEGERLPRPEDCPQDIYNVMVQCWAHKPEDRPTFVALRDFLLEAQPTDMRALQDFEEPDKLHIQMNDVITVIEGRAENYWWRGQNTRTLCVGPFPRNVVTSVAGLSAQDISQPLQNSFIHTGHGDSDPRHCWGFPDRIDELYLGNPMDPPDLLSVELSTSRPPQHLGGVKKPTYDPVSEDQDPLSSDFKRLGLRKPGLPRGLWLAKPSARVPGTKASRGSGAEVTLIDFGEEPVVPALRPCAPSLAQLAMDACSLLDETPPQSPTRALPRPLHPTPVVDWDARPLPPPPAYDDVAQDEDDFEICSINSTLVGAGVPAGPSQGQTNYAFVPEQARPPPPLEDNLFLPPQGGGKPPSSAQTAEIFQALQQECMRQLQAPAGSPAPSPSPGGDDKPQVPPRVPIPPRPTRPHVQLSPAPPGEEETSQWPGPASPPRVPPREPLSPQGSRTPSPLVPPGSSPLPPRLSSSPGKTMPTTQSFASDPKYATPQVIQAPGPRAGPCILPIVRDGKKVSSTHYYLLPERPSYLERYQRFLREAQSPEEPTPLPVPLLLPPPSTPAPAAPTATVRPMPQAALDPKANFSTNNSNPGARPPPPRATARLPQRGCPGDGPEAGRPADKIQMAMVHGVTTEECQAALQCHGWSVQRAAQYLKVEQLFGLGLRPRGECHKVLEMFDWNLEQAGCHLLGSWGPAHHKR
# Chain of Dual specificity testis-specific protein kinase 1 (Homo sapiens) (Q15569 whole entry, looked up, the tested form may be a part): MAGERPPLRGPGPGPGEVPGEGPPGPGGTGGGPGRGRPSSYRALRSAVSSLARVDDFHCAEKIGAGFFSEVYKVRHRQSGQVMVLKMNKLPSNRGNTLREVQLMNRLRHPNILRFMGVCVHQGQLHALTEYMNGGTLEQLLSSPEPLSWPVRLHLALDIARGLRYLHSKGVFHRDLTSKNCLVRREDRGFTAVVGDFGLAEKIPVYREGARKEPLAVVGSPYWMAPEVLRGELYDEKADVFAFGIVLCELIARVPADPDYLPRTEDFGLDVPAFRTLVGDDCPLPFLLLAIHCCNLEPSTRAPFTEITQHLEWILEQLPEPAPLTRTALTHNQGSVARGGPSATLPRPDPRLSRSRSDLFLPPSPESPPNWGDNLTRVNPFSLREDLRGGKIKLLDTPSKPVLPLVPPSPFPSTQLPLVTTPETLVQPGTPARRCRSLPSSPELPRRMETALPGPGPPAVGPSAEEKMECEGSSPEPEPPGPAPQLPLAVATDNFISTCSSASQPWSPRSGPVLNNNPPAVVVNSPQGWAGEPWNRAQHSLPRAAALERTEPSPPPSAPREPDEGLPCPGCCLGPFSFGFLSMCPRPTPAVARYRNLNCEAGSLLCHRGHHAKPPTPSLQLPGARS
# Chain of Mitogen-activated protein kinase kinase kinase 20 (Homo sapiens) (Q9NYL2 2-800 limits assumed): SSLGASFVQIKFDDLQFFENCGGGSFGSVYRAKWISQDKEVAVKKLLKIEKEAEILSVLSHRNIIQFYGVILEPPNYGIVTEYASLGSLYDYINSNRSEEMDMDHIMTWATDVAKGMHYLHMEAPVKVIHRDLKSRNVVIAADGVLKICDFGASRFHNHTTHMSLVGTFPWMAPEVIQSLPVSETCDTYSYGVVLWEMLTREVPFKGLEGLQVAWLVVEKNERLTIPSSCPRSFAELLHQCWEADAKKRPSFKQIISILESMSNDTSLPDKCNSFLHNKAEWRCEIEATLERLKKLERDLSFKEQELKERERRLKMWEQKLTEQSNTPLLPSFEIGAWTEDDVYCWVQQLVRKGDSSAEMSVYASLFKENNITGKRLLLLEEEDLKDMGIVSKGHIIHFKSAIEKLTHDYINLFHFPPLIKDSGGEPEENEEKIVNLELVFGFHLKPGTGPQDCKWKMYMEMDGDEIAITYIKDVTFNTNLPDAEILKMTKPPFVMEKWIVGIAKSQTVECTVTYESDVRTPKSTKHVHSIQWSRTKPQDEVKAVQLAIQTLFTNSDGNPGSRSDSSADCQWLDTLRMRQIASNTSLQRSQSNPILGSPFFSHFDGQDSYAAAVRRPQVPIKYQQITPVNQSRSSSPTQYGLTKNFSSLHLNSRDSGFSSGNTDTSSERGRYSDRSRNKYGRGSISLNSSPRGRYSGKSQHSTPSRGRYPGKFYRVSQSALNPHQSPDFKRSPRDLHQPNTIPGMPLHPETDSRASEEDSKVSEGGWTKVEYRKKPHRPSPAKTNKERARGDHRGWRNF
smiles,measurement,setting,value
CCOc1cc(C(=O)N2CCC(N3CCN(C)CC3)CC2)ccc1Nc1ncc2c(n1)N(C1CCCC1)c1ccccc1C(=O)N2C,inhibition,[1],100%
same,inhibition,[2],80%
same,inhibition,[3],100%
same,inhibition,[4],100%
same,inhibition,[5],100%
same,inhibition,[6],100%
COc1cc(N2CCC(N3CCN(C)CC3)CC2)ccc1Nc1ncc2c(n1)N(C)c1ccccc1C(=O)N2C,inhibition,[1],100%
same,inhibition,[2],18%
same,inhibition,[3],82%
same,inhibition,[4],99%
same,inhibition,[5],100%
same,inhibition,[6],100%
COc1cc(C(=O)N2CCC(N3CCN(C)CC3)CC2)ccc1Nc1ncc2c(n1)N(C1CCCC1)c1ccccc1C(=O)N2C,inhibition,[1],100%
same,inhibition,[2],35%
same,inhibition,[3],100%
same,inhibition,[4],100%
same,inhibition,[5],100%
same,inhibition,[6],100%
